Measured values from BindingDB's records for doi:10.1016/j.bioorg.2016.07.010 (Universiti Teknologi Mara (Uitm), 2016).

Molecular target: Thymidine phosphorylase (Escherichia coli O45:K1 (strain S88 / ExPEC), UniProt B7MNI9)
Assay: Thymidine Phosphorylase Assay
Details: pH 7.4; 25 °C
Description: The Thymidine phosphorylase/PD-ECGF (E. coli) activity was determined by measuring the absorbance at 290 nm spectrophotometrically. In brief, total reaction mixture of 200 uL contained 145 uL of potassium phosphate buffer (pH 7.4), 30 uL of enzyme (E. coli) at concentration 0.05 and 0.002 U, respectively, were incubated with 5 uL of test materials for 10 min at 25 °C in microplate reader. After incubation, preread at 290 nm was taken to deduce the absorbance of substrate particles. Substrate (20 uL, 1.5 mM), was dissolved in potassium phosphate buffer, was immediately added to plate and continuously read after 10, 20, and 30 min in microplate reader (spectra max, molecular devices, CA, USA). All assays were performed in triplicate.

Thymidine phosphorylase, sequence (B7MNI9 whole entry): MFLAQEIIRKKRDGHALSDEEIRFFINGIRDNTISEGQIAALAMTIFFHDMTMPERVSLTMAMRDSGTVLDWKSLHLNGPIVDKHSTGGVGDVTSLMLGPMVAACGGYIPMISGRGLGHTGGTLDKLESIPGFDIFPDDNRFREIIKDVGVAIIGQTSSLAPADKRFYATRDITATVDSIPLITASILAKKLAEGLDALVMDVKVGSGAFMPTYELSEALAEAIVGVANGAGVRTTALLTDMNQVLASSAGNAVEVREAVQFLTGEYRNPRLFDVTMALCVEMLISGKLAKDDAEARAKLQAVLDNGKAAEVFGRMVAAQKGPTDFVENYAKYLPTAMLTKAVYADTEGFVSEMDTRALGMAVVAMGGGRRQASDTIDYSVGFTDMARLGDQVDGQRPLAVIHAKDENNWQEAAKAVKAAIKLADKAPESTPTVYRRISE

Compound | IC50
Oc1ccccc1/C=N/Nc1cnc2ccccc2n1 [(E)-2-((2-(quinoxalin-2-yl)hydrazono)methyl)phenol (28)] | 37.2 µM
COc1ccc(/C=N/Nc2cnc3ccccc3n2)c(O)c1 [(E)-5-methoxy-2-((2-(quinoxalin-2-yl)hydrazono)methyl)phenol (20)] | 34.4 µM
Fc1ccc(/C=N/Nc2cnc3ccccc3n2)cc1 [(E)-2-(2-(4-fluorobenzylidene)hydrazinyl)quinoxaline (3)] | 58.1 µM
Fc1cccc(/C=N/Nc2cnc3ccccc3n2)c1 [(E)-2-(2-(3-fluorobenzylidene)hydrazinyl)quinoxaline (2)] | 66.1 µM
Oc1cc(O)c(/C=N/Nc2cnc3ccccc3n2)c(O)c1 [(E)-5-((2-(quinoxalin-2-yl)hydrazono)methyl)benzene-2,4,6-triol (19)] | 9.1 µM
Fc1ccccc1/C=N/Nc1cnc2ccccc2n1 [(E)-2-(2-(2-fluorobenzylidene)hydrazinyl)quinoxaline (1)] | 33.6 µM
Clc1ccccc1/C=N/Nc1cnc2ccccc2n1 [(E)-2-(2-(2-chlorobenzylidene)hydrazinyl)quinoxaline (4)] | 37.6 µM
Clc1cccc(/C=N/Nc2cnc3ccccc3n2)c1 [(E)-2-(2-(3-chlorobenzylidene)hydrazinyl)quinoxaline (5)] | 93.5 µM
Oc1cc(O)c(/C=N/Nc2cnc3ccccc3n2)cc1O [(E)-5-((2-(quinoxalin-2-yl)hydrazono)methyl)benzene-1,2,4-triol (18)] | 3.2 µM
Oc1ccc(O)c(/C=N/Nc2cnc3ccccc3n2)c1 [(E)-2-((2-(quinoxalin-2-yl)hydrazono)methyl)benzene-1,4-diol (16)] | 35.5 µM
COc1ccc(/C=N/Nc2cnc3ccccc3n2)cc1O [(E)-2-methoxy-5-((2-(quinoxalin-2-yl)hydrazono)methyl)phenol (21)] | 46.9 µM
COc1ccc(O)c(/C=N/Nc2cnc3ccccc3n2)c1 [(E)-4-methoxy-2-((2-(quinoxalin-2-yl)hydrazono)methyl)phenol (24)] | 36.3 µM
C(=N\Nc1cnc2ccccc2n1)/c1c[nH]c2ccccc12 [(E)-2-(2-((1H-indol-3-yl)methylene)hydrazinyl)quinoxaline (27)] | 84.3 µM
Oc1ccc(/C=N/Nc2cnc3ccccc3n2)cc1 [(E)-4-((2-(quinoxalin-2-yl)hydrazono)methyl)phenol (13)] | 48.6 µM
Oc1cccc(/C=N/Nc2cnc3ccccc3n2)c1 [(E)-3-((2-(quinoxalin-2-yl)hydrazono)methyl)phenol (12)] | 63.2 µM
O=c1[nH]c(=O)c2cc[nH]c2[nH]1 [1,7-Dihydro-pyrrolo[2,3-d]pyrimidine-2,4-dione] | 38.7 µM
Oc1ccc(/C=N/Nc2cnc3ccccc3n2)c(O)c1 [(E)-4-((2-(quinoxalin-2-yl)hydrazono)methyl)benzene-1,3-diol (15)] | 33.4 µM
Oc1ccc(/C=N/Nc2cnc3ccccc3n2)cc1O [(E)-4-((2-(quinoxalin-2-yl)hydrazono)methyl)benzene-1,2-diol (17)] | 8.6 µM
Oc1cccc(/C=N/Nc2cnc3ccccc3n2)c1O [(E)-3-((2-(quinoxalin-2-yl)hydrazono)methyl)benzene-1,2-diol (14)] | 15.4 µM
